Counter-ions that a name gives are not always drawn. Like-named read-outs stand apart in the source and are kept apart here.
Tested on: iCell cardiomyocytes (human iPSC-derived cardiomyocytes)
Experiment: Intracellular Ca2+ flux / beating parameters in iCell cardiomyocytes (FLIPR tetra), 90 min or 24 h
Format: cell-based
Conditions: Homo sapiens, Cardiomyocyte, 0.00 µM = 100.00; for activity at 0.1 µM: 0.10 µM
Outline: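 PODs were defined as the concentration crossing one SD of the vehicle-control means (0.5% DMSO) on four-parameter logistic fits of Ca2+ trace metrics (peak height, frequency, peak-spacing CV, decay/rise ratio). Traces came from 100 s, 8 Hz FLIPR reads at 37 °C on calcium-dye-loaded iCell cardiomyocytes. Before reading, cells were treated for 90 min or 24 h from 5× chemical plates spanning 0.05–500 µM, in triplicate.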

[1] = 1.5 h, 90min, read-out: cm.amp.avg.90min
[2] = 1.5 h, 90min, read-out: cm.amp.cv.90min
[3] = 1.5 h, 90min, read-out: cm.bpm.90min
[4] = 1.5 h, 90min, read-out: cm.decay.rise.90min
[5] = 1.5 h, 90min, read-out: cm.spacing.cv.90min
[6] = 24 h, 24hrs, read-out: cm.amp.avg.24hrs
[7] = 24 h, 24hrs, read-out: cm.amp.cv.24hrs
[8] = 24 h, 24hrs, read-out: cm.bpm.24hrs
[9] = 24 h, 24hrs, read-out: cm.decay.rise.24hrs
[10] = 24 h, 24hrs, read-out: cm.spacing.cv.24hrs

Which activity at 0.01 µM [1] does the source give for `O=S(=O)(O)Oc1cc(Cl)c(-c2cc(Cl)ccc2Cl)cc1Cl` [4-yl PCB 52 sulfate] here?
Its activity at 0.01 µM is 103%.

What about the activity at 0.01 µM [2] of the same compound?
Its activity at 0.01 µM is 105%.

What about the activity at 0.01 µM [3] of the same compound?
Its activity at 0.01 µM is 102%.

What about the activity at 0.01 µM [4] of the same compound?
Its activity at 0.01 µM is 101%.

And the activity at 0.01 µM [5]?
Its activity at 0.01 µM is 100%.

And the activity at 0.1 µM [1]?
The activity at 0.1 µM was 113%.

What about the activity at 0.1 µM [2] of the same compound?
Its activity at 0.1 µM is 86.3%.

What about the activity at 0.1 µM [3] of the same compound?
Its activity at 0.1 µM is 103%.

What about the activity at 0.1 µM [4] of the same compound?
Its activity at 0.1 µM is 90.8%.

And the activity at 0.1 µM [5]?
The activity at 0.1 µM was 101%.

What about the activity at 1 µM [1] of the same compound?
The activity at 1 µM was 102%.

What about the activity at 1 µM [2] of the same compound?
Its activity at 1 µM is 104%.

What about the activity at 1 µM [3] of the same compound?
Its activity at 1 µM is 100%.

And the activity at 1 µM [4]?
The activity at 1 µM was 97.7%.

What about the activity at 1 µM [5] of the same compound?
Its activity at 1 µM is 97.4%.

What about the activity at 10 µM [1] of the same compound?
The activity at 10 µM was 98.4%.

And the activity at 10 µM [2]?
The activity at 10 µM was 103%.

What about the activity at 10 µM [3] of the same compound?
Its activity at 10 µM is 97.8%.

And the activity at 10 µM [4]?
The activity at 10 µM was 97.1%.

What about the activity at 10 µM [5] of the same compound?
Its activity at 10 µM is 104%.

And the activity at 100 µM [1]?
Its activity at 100 µM is 0%.

And the activity at 100 µM [2]?
Its activity at 100 µM is 0%.

What about the activity at 100 µM [3] of the same compound?
Its activity at 100 µM is 0%.

And the activity at 100 µM [4]?
Its activity at 100 µM is 0%.

What about the activity at 100 µM [5] of the same compound?
Its activity at 100 µM is 0%.

And the activity at 0.01 µM [6]?
Its activity at 0.01 µM is 128%.

And the activity at 0.01 µM [7]?
Its activity at 0.01 µM is 103%.

And the activity at 0.01 µM [8]?
Its activity at 0.01 µM is 97.4%.

And the activity at 0.01 µM [9]?
The activity at 0.01 µM was 104%.

What about the activity at 0.01 µM [10] of the same compound?
Its activity at 0.01 µM is 107%.

And the activity at 0.1 µM [6]?
The activity at 0.1 µM was 135%.

And the activity at 0.1 µM [7]?
Its activity at 0.1 µM is 70.5%.

And the activity at 0.1 µM [8]?
Its activity at 0.1 µM is 94.5%.

What about the activity at 0.1 µM [9] of the same compound?
The activity at 0.1 µM was 109%.

And the activity at 0.1 µM [10]?
Its activity at 0.1 µM is 110%.

What about the activity at 1 µM [6] of the same compound?
Its activity at 1 µM is 147%.

What about the activity at 1 µM [7] of the same compound?
The activity at 1 µM was 69.4%.

And the activity at 1 µM [8]?
Its activity at 1 µM is 95.5%.

And the activity at 1 µM [9]?
The activity at 1 µM was 104%.

And the activity at 1 µM [10]?
The activity at 1 µM was 91.9%.

What about the activity at 10 µM [6] of the same compound?
Its activity at 10 µM is 167%.

And the activity at 10 µM [7]?
The activity at 10 µM was 68.9%.

And the activity at 10 µM [8]?
The activity at 10 µM was 92.6%.

What about the activity at 10 µM [9] of the same compound?
Its activity at 10 µM is 98.8%.

And the activity at 10 µM [10]?
Its activity at 10 µM is 111%.

What about the activity at 100 µM [6] of the same compound?
Its activity at 100 µM is 0%.

And the activity at 100 µM [7]?
Its activity at 100 µM is 0%.

What about the activity at 100 µM [8] of the same compound?
Its activity at 100 µM is 0%.

What about the activity at 100 µM [9] of the same compound?
Its activity at 100 µM is 0%.

And the activity at 100 µM [10]?
Its activity at 100 µM is 0%.
